{"source": "patent US12291513B2", "about": "“Pyridinium derivatives made by hydrothermal synthesis for use as anolytes in electrochemical cells” (Wisconsin Alumni Research Foundation, priority 2021, dated 2025)", "key": {"[1]": {"test": "Full RFB cell cycling, anolyte-limiting, BTMAP-Fc catholyte", "conditions": "for capacity decay in RFB cycling: anolyte-limiting", "experimental": "The RFB measurements were carried out in a custom-made zero-gap device previously reported by Li et al. (Li, W. et al., Chem 2018, 4 (11), 2644-2657; and Li, W. et al., Adv. Energy Mater. 2019, 9 (31), 1900918.) Both symmetric flow cell and RFB full cell measurements were conducted using a Bio-Logic SP-200 potentiostat at room temperature (˜20° C.). In symmetric cells, 0.1 M of active species in 1 M NaCl (pre-charged to 50% SOC of the first electron reduction using FcNCl as the counter cathode in bulk electrolysis) was utilized on both sides with the capacity limiting side (CLS) consisting of 5 mL of solution and the non-capacity limiting side (NCLS) consisting of 10 mL of solution separated by a Selemion AMV anion-exchange membrane (Asahi Glass Co.). The neat Dex-Vi full RFB cell cycling was performed using the product from the Dex-Vi synthesis directly without any purification. The neat product was diluted to roughly 0.1 M to pair with a 0.2 M BTMAP-Fc counter catholyte in excess capacity separated by an AMV membrane. Both the anolyte and catholyte were 5 mL in total volume with 0.5 M NaCl supporting electrolyte. The first electron high concentration Dex-Vi RFB full cell cycling was performed using 5 mL of 1.5 M Dex-Vi as the anolyte and 10 mL 0.75 M BTMAP-Fc as the catholyte, both of which were prepared in pure water without any supporting salt, with a DSV anion-exchange membrane. The second-electron high concentration full cell cycling was performed using 5 mL of 1.5 M Dex-Vi in water as the anolyte, 20 mL of 0.75 M BTMAP-Fc in water as the catholyte, and a DSV anion-exchange membrane. Rate performance was investigated using 0.1 M Dex-Vi anolyte and 0.2 M BTMAP-Fc catholyte both in 1 M NaCl with DSV anion-exchange membrane.\nGraphite plates (⅛-inch thickness, MWI Inc.) with a 20×20×1.2 mm pocket were used as current collectors for RFB devices. 4 cm^2 graphite felt electrodes (GFD 3 EA, […]®) were pre-treated at 400° C. in air for 6 hr before being used on both sides of the cell. 25×25 mm Selemion AMV or DSV was presoaked in 1.0 M NaCl for more than 24 hr before it was used as an anion-exchange membrane. The cell was assembled with four pieces of die cut PTFE sheets (0.04-inch thickness) as gaskets and tightened with eight #10-24 bolts. The electrolytes were pumped through the flow channels by a peristaltic pump (Cole-Parmer Masterflex L/S) via PharMed BPT tubing. The electrolyte flow rate was controlled at 20 mL·min^−1 for all RFB measurements. 10 mL custom made glass vials with two 4 mm OD electrolyte inlet/out arms were used as electrolyte reservoirs. […]"}, "[2]": {"test": "Electrochemical impedance spectroscopy (EIS)", "type": "physicochemical", "experimental": "CV and EIS experiments were ran using a PalmSens4 potentiostat with the PSTrace software. Electrochemical experiments were performed in 1.0 M NaCl supporting electrolyte using 15 mM of active material at room temperature (18° C.). Formal potentials for the redox couples were estimated by taking the average potential between the cathodic and anodic peak. Diffusional behavior was investigated by varying the scan rate between 10-100 mV·s^−1 for the first electron reduction and 50-200 mV·s^−1 for the second electron reduction, and the diffusion constants of the reduced and oxidized states (D^R and D^O) were determined via the Randles-Sevcik equation assuming ideal reversible behavior (FIG. 12D). Potentiostatic EIS measurements were used for determination of a combined diffusional constant of the reduced and oxidized states (D^EIS) and of the standard electron kinetic rate constant (k^o). These EIS measurements were performed at the formal reduction potential (held for 30 seconds before measurement) in which the concentration of the two redox states at the electrode surface were assumed to be the same and equal to half of the initially prepared redox species concentration.\nA glassy carbon working electrode (CH Instruments, 0.0707 cm^2), a saturated calomel reference electrode (SCE, CH Instruments, +0.241 V vs. SHE), and a platinum wire counter electrode were used for both CV and EIS measurements. The working electrode was polished with 1 μm, 0.3 μm, and 0.05 μm alumina slurry successively. All electrodes were rinsed with deionized water in between measurements.\nPotentiostatic EIS measurements were taken at the formal potential in which the reduction and oxidation processes are at equilibrium and the concentrations of the reduced and oxidized states can be assumed equal. This permitted simple calculation of the standard kinetic rate constant (k^o) via Eqn. 2 where R is the ideal gas constant, T is temperature, n is number of electrons, RCT is the charge-transfer resistance, F is Faraday's constant, A is the electrode surface area in cm^2, and C is the concentration of either the oxidized or reduced form at the electrode surface in mole cm^−3 (which is assumed to be half of the initially prepared redox species concentration, C═C^O═C^R=0.5 Cinitial).\nA combined diffusion coefficient of the reduced and oxidized state (D^EIS) can also be determined using Eqn. 3, where σ is the Warburg diffusional impedance variable and all other variables have the previously defined meaning.\nRCT and σ can be determined by fitting the impedance spectrum to the ideal Randles equivalent circuit for a 3-electrode system where Ru is the uncompensated resistance between the working and reference electrode, RCT is the charge transfer resistance between the working electrode and the redox species, WD is the Warburg diffusional element, and CPE is the constant phase element that represents capacitive behavior of the working electrode.\nThe raw data was fitted based on this equivalent circuit using the Z-Fitting tool on the PSTrace software and with the Levenberg-Marquardt algorithm across the entire measured frequency range. For the second redox state, D2^EIS were 3.6×10^−6 cm^2·s^−1 and 3.8×10^−6 cm^2·s^−1 and k2^o were 0.13 cm·s^−1 and 0.23 cm·s^−1 for Dex-Vi and BTMAP-Vi, respectively."}}, "data": [{"smiles": "C[N+](C)(C)CC(O)C[n+]1ccc(-c2cc[n+](CC(O)C[N+](C)(C)C)cc2)cc1", "note": "(stereo not drawn) [Dex-Vi, bis(3-trimethylammonio-2-hydroxy)propyl viologen tetrachloride]", "values": [{"measurement": "capacity decay in RFB cycling", "setting": "[1]; 0.1 M, two weeks (1,200+ cycles)", "value": "no observable decay"}, {"measurement": "capacity decay in RFB cycling", "setting": "[1]; 1.5 M, one month continual cycling", "value": "no discernable decay"}, {"measurement": "Anolyte-limiting RFB Stability", "setting": "[1]; Table 1", "value": "~0", "unit": "% decay/year"}, {"measurement": "RFB Viologen Molarity (1e^−)", "setting": "[1]; Table 1", "value": 1.5}, {"measurement": "EIS D", "setting": "[2]; Example 2", "value": "3.516E−06", "unit": "cm^2/s"}, {"measurement": "EIS i^0", "setting": "[2]; Example 2", "value": "6.57E−04", "unit": "A"}, {"measurement": "EIS k^0", "setting": "[2]; Example 2", "value": 0.0128, "unit": "cm/s"}, {"measurement": "k1^0", "setting": "[2]; Table 1", "value": 0.05, "unit": "cm/s"}, {"measurement": "combined diffusion coefficient (D1^EIS)", "setting": "[2]; first reduction", "value": "3.9×10^−6 cm^2·s^−1"}, {"measurement": "standard rate constant (k1^0)", "setting": "[2]; first reduction", "value": 0.05, "unit": "cm/s"}, {"measurement": "D2^EIS", "setting": "[2]; second redox state", "value": "3.6×10^−6 cm^2·s^−1"}, {"measurement": "k2^o", "setting": "[2]; second redox state", "value": 0.13, "unit": "cm/s"}]}]}
